# Measured values as given in patent publication EP4159213A1, “PHARMACEUTICAL COMPOSITIONS FOR USE IN PREVENTION AND/OR TREATMENT AND/OR CURE OF HEPATITIS B VIRUS” (Katholieke Universiteit Leuven, priority 2021, dated 2023).
# Read-outs that look alike come from different tables or passages of the source.
# How the values were obtained:
# Type in all cases: cell-based
# human NTCP [1] = biological target: T1, human NTCP (Homo sapiens, UniProt Q14973); assay: Inhibition of tauro-nor-THCA-24-DBD uptake in NTCP-transfected CHO cells; set-up: expressed in transfected cells; host or cells: CHO cells, geneticin selection, expression induced with sodium butyrate; settings: for Ki / concentration-dependent inhibition of tauro-nor-THCA-24-DBD uptake: 3 µM tauro-nor-THCA-24-DBD; for Ki: read-out: Ki; for Uptake of tauro-nor-THCA-24-DBD (% of control): compound at equimolar concentration with 3 µM tauro-nor-THCA-24-DBD, triplicate; for concentration-dependent inhibition of tauro-nor-THCA-24-DBD uptake: multiple inhibitor concentrations
# T1 sequence (Q14973 1-349): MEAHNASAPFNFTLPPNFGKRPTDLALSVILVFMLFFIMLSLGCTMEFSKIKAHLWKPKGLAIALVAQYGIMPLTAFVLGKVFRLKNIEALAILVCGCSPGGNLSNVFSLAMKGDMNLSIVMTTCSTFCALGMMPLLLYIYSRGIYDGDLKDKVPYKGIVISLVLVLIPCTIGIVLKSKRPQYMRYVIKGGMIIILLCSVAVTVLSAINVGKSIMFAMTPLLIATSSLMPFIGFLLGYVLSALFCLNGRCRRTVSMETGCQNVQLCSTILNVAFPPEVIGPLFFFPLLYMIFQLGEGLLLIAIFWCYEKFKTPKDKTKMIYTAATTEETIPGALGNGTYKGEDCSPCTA
# Description: (§1) The cells were placed in an incubator at 37 °C and 5% CO2. The culture medium consisted of DMEM with 1 g·L^-1 glucose and 25 mM HEPES, supplemented with 10% FBS, 0.05 mg·mL^-1 L-proline, 100 IU·mL^-1 penicillin, 100 […], 2 mM glutamine, 0.11 mg·mL^-1 sodium pyruvate. To ensure selection of NTCP-transfected cells, 0.5 mg·mL^-1 geneticin was added to the medium of the transfected cells. Cells were seeded in black 96-well plates with transparent bottom at a density of 6000 cells·well^-1 and 4000 cells·well^-1 for wild-type and transfected cells, respectively. The medium was replaced every other day and 5 mM sodium butyrate was added to induce protein expression at least 36 h before the start of the experiments. Experiments were performed on day 4 or 5 after seeding when confluence was reached.
# Furthermore, to analyse the uptake experiments in NTCP-transfected CHO cells, cells were rinsed twice with 200 µL-well^-1 uptake buffer (HBSS containing 10 mM HEPES, pH 7.4) at 37 °C and subsequently preincubated with 100 µL uptake buffer for 15 minutes. For inhibition experiments, compounds were added at double concentration during preincubation. Uptake was initiated by adding 100 µL double-concentrated tauro-nor-THCA-24-DBD solution in uptake buffer. Cells were incubated for 15 minutes. The reaction was quenched by aspirating the incubation mixture and washing four times with ice cold uptake buffer. The cells were lysed with 100 µL 0.5% Triton X-100 in PBS and placed on a plate shaker (300 rpm) at room temperature for 30 minutes. Uptake of tauro-nor-THCA-24-DBD was determined using fluorescence spectroscopy (excitation 440 nm, emission 580 nm) using a Tecan Infinite 200 plate reader (Tecan Benelux, Mechelen, Belgium). Protein content of each well was determined with the BCA Protein assay (Thermo Fisher Scientific, Waltham, MA) performed according to the manufacturer's protocol. Uptake kinetics of tauro-nor-THCA-24-DBD were determined by incubating eight different concentrations in the absence of any compound. […] All conditions were tested in triplicate.
# Uptake of tauro-nor-THCA-24-DBD in presence of compounds was expressed to uptake of the control for each batch, i.e. when no compound was present.
# For determination of the IC50, the uptake in presence of various concentrations of inhibitor was fitted to the sigmoid Emax model: E = Emax −(Emax−E0) × (([I])^n)/(([I])^n + IC50^n) [formula] with E the uptake of tauro-nor-THCA-24-DBD, E0 the uptake at maximal inhibition by the compound, Emax the uptake at minimal inhibition, IC50 the concentration of the inhibitor at half maximal inhibition, n the Hill coefficient and [I] the concentration of the inhibitor. All curves were fitted with nonlinear least squares regression using R version 3.5.1.
# Assuming competitive inhibition, the Cheng-Prusoff equation was used to determine the Ki value: Ki = (IC50)/(1 + ([S])/(Km)) [formula] where Ki is the binding affinity of the inhibitor, IC50 the concentration of the inhibitor at half maximal inhibition, [S] the substrate concentration, and Km the Michaelis-Menten constant of the substrate.
# human NTCP [2] = biological target: T1, human NTCP; assay: as above; set-up: expressed in transfected cells; host or cells: CHO cells, geneticin-selected, expression induced with sodium butyrate
# Description: as §1, with “The medium was replaced every other day and 5 mM sodium butyrate was added to induce protein expression at least 36 h before the start of the experiments. Experiments were performed on day 4 or 5 after seeding when confluence was reached.” left out
# (§2) Furthermore, to analyse the uptake experiments in NTCP-transfected CHO cells, cells were rinsed twice with 200 µL-well^-1 uptake buffer (HBSS containing 10 mM HEPES, pH 7.4) at 37 °C and subsequently preincubated with 100 µL uptake buffer for 15 minutes. […] Uptake of tauro-nor-THCA-24-DBD was determined using fluorescence spectroscopy (excitation 440 nm, emission 580 nm) using a Tecan Infinite 200 plate reader (Tecan Benelux, Mechelen, Belgium). Protein content of each well was determined with the BCA Protein assay (Thermo Fisher Scientific, Waltham, MA) performed according to the manufacturer's protocol. Uptake kinetics of tauro-nor-THCA-24-DBD were determined by incubating eight different concentrations in the absence of any compound. […]
# human NTCP [3] = biological target: T1, human NTCP; assay: Uptake kinetics of tauro-nor-THCA-24-DBD in NTCP-transfected CHO cells; set-up: expressed in transfected cells; host or cells: CHO cells, geneticin selection, expression induced with sodium butyrate
# Description: as §1, with “To culture of NTCP-transfected CHO cells, wild-type and human NTCP-transfected CHO cells were cultured from passage 20 to 45 in T-75 flasks (Greiner-Bio-One, Wemmel, Belgium) as prescribed previously (Treiber et al., 2007). The cells” for “The cells”
# as §2, with “minutes. For inhibition experiments, compounds were added at double concentration during preincubation.” for “minutes.”, “compound. The inhibitory potential of all compounds of the Spectrum Collection (n = 2000) and the ChemDiv library (n = 556) were determined at equimolar concentrations with 3 µM tauro-nor-THCA-24-DBD.” for “compound.”
# [4] = Cheng-Prusoff from IC50, screening hits
# [5] = concentration dependent uptake, 15 minutes, NTCP-transfected CHO cells, Michaelis-Menten fit
Compound,Uptake of tauro-nor-THCA-24-DBD (% of control) (human NTCP [1]),concentration-dependent inhibition of tauro-nor-THCA-24-DBD uptake (human NTCP [1]),other results
COP(=S)(OC)Oc1ccc(Sc2ccc(OP(=S)(OC)OC)cc2)cc1 [Temefos],38.51 % of control,,Ki (human NTCP [1]; [4]): 4.16 µM
COc1cc2c3cc1Oc1cc(ccc1O)C[C@@H]1c4c(cc(OC)c(O)c4Oc4ccc(cc4)C[C@@H]3N(C)CC2)CC[N+]1(C)C.Cl.O.O.O.O.O.[Cl-] [Tubocurarine chloride],49.76 % of control,,
Nc1nc(=O)c2[nH]c(=O)cnc2[nH]1 [Xanthopterin],49.67 % of control,,
CCOc1nc2cccc(C(=O)O)c2n1Cc1ccc(-c2ccccc2-c2nnn[nH]2)cc1 [candesartan],,,Ki (human NTCP [1]; values given with ± spread): 50.9 ± 9.9 µM
CC[C@H]1OC(=O)[C@H](C)[C@@H](O[C@H]2C[C@@](C)(OC)[C@@H](O)[C@H](C)O2)[C@H](C)[C@@H](O[C@@H]2O[C@H](C)C[C@H](N(C)C)[C@H]2O)[C@](C)(O)C[C@@H](C)C(=O)[C@H](C)[C@@H](O)[C@]1(C)O [erythromycin],,Only candesartan showed inhibition,
O=C1c2c(O)cc(O)cc2OC(c2ccc(O)cc2)C1c1c(O)cc(O)c2c(=O)cc(-c3ccc(O)c(O)c3)oc12 (stereo not drawn) [fukugetin],,showed concentration-dependent inhibition,
O=c1c(O)c(-c2ccc(O)c(O)c2)oc2cc(O)cc(O)c12 [quercetin],,did not show concentration-dependent inhibition,
Cc1cc2c(C(=O)NC[C@H](C)c3ccccc3)c(O)c(O)cc2c(O)c1-c1c(C)cc2c(C(=O)NC[C@H](C)c3ccccc3)c(O)c(O)cc2c1O [sabutoclax],,showed concentration-dependent inhibition,Ki (human NTCP [1]; values given with ± spread): 0.522 ± 0.077 µM
O=C(O)c1cc(O)c2c(c1)[C@@H]([C@H]1c3cc(C(=O)O)cc(O)c3C(=O)c3c(O[C@@H]4O[C@H](CO)[C@@H](O)[C@H](O)[C@H]4O)cccc31)c1cccc(O[C@@H]3O[C@H](CO)[C@@H](O)[C@H](O)[C@H]3O)c1C2=O [sennoside B],,did not show concentration-dependent inhibition,
Dehydroavocatin-1 -acetate,44.14 % of control,,Ki (human NTCP [1]; [4]): 118 µM
Echinocystic acid,24.64 % of control,,
Gramicidin,,,"Ki (human NTCP [2]; 3 µM tauro-nor-THCA-24-DBD, Cheng-Prusoff from IC50, screening hits): 7.59 µM; Uptake of tauro-nor-THCA-24-DBD (% of control) (human NTCP [2]; compound at equimolar concentration with 3 µM tauro-nor-THCA-24-DBD, triplicate): 37.54 % of control"
Oligomycin (A shown),33.87 % of control,,Ki (human NTCP [1]; [4]): 0.26 µM
tauro-nor-THCA-24-DBD,,,Km (human NTCP [3]; [5]): 9.2 ± 1.8 µM; Vmax (human NTCP [3]; [5]): 322.1 ± 18.3 pmol·mg protein^-1·min^-1; uptake clearance (human NTCP [3]; corresponds to Vmax and Km): 35.0 µL·mg protein^-1· min^-1
